This data set can be described thus: Degradation of compound and release of acrolein, tracked via NMR spectroscopy. Conditions: 50 mM in deuterated water; for % acrolein generated pH 3, 3 days / % degraded pH 3, 3 days: pH 3 (adjusted with deuterium chloride); for % acrolein generated pH 3, 3 days / % degraded pH 3, 3 days / % acrolein generated pH 7, 7 days / % degraded pH 7, 7 days: 25 degrees Celsius. Format: physicochemical. The method, then: Degradation of Compound and Release of Acrolein
n=3, X as defined in the table. Measured at 25 degrees Celsius (room temperature), tracked via NMR spectroscopy. All compounds were prepared at 50 mM in deuterated water, pH adjusted with deuterium chloride.
n=3, X is Br. Measured at 25 or 70 degrees Celsius, tracked via NMR spectroscopy. All compounds were prepared at 50 mM in deuterated water at pH 7. Measurements were made after 4 hours.

Regarding `COCCOCCOCCOC(CCCl)OCCOCCOCCOC` [Compound 1], the “% acrolein generated pH 3, 3 days” value worked out at 1%; the “% degraded pH 3, 3 days” value was determined as 50%; the “% acrolein generated pH 7, 7 days” value is on record as 0%; the “% degraded pH 7, 7 days” value is on record as 0%.
On to `COCCOCCOCCOC(CCBr)OCCOCCOCCOC` [Compound 3], for which the “% acrolein generated pH 3, 3 days” value was determined as 8%; the “% degraded pH 3, 3 days” value is recorded as 100%; the “% acrolein generated pH 7, 7 days” value turned out to be 12%; the “% degraded pH 7, 7 days” value is 95%. In addition, for the setting “25° C., pH 7, after 4 hours”, the “% acrolein generated 25° C.” value came out at 0% and the “% degraded 25° C.” value came to 0%. Besides, where the note is “70° C., pH 7, after 4 hours”, the “% acrolein generated 70° C.” value is reported as 40% and the “% degraded 70° C.” value stood at 85%.

For the origin of these results see US20190062260A1, “ANTIMICROBIAL COMPOSITIONS, METHODS OF MAKING, AND METHODS OF USE” (priority 2017, published 2019).
